# In ChEMBL document CHEMBL5137064, “Therapeutic Potential and Activity Modulation of the Protein Lysine Deacylase Sirtuin 5” (J Med Chem, 2022):
# *1 amine or outer side, *2 acyl side, *3 side chain or, on linkers, in order; H or OH if unused. Where a SMILES comes first, the peptide text is derived from it. Bridges are numbered along the chain shown (N, C = ends). [ ]: non-standard residue; d: D form. The star is where a group is joined. ξ: configuration not given here. X1 = O=C(O)CCNC(=S)NCCCC[C@H](N[*:1])C(=O)[*:2]; Succinyl(3ξ-Ph) = O=C(O)C(CC(=O)*)c1ccccc1; Heptanedioyl = O=C(CCCCCC(=O)[*:2])[*:1]; X2 = CC(CC(=O)*)(C(=O)O)c1ccccc1; X4 = CC(=O)SC(CC(=O)*)C(=O)O; X3 = CCCCC(CC(=O)*)C(=O)O; Bz = O=C(c1ccccc1)*
# Key:
# [1] = molecular target: T1, NAD-dependent protein deacylase sirtuin-5, mitochondrial (Homo sapiens, UniProt Q9NXA8); experiment: Inhibition of human recombinant SIRT5 using fluorogenic Benzyl-Lys(Succinyl)-AMC as substrate incubated for 2 hrs measured by fluoroscence based microplate reader method
# T1 sequence (Q9NXA8 whole entry): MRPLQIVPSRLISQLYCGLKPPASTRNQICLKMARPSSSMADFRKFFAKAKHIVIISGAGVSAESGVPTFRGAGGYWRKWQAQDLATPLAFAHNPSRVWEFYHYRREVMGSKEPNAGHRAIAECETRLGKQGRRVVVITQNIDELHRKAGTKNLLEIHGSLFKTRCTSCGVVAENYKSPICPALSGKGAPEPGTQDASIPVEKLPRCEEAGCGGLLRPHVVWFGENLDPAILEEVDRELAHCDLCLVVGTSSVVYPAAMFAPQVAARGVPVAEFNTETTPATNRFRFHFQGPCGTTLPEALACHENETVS
# [2] = molecular target: T2, NAD-dependent protein deacetylase sirtuin-1 (Homo sapiens) (UniProt Q96EB6); experiment: Inhibition of SIRT1 (unknown origin) at 10 uM relative to control
# T2 sequence (whole entry): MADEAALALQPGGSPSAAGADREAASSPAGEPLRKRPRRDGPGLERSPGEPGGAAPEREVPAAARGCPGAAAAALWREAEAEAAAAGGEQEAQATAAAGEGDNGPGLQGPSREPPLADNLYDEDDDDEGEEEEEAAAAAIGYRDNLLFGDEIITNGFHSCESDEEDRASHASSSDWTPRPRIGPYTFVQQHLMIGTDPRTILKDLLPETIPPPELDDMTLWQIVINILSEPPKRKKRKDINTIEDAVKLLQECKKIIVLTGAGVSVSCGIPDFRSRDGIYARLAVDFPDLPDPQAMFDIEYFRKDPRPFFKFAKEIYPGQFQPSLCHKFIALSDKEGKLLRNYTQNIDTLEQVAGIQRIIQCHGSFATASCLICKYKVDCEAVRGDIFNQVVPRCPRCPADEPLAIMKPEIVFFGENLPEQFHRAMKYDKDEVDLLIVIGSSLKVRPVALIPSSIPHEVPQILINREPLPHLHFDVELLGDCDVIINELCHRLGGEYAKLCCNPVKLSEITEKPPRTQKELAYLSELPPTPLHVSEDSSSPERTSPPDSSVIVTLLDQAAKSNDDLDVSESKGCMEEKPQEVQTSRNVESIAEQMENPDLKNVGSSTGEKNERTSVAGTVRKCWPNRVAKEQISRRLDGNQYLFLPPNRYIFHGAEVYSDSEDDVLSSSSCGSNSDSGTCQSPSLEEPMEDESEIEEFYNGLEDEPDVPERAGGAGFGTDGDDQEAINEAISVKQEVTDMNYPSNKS
# [3] = molecular target: T1, NAD-dependent protein deacylase sirtuin-5, mitochondrial; experiment: Inhibition of SIRT5 deglutarylase activity (unknown origin)
# [4] = molecular target: T3, NAD-dependent protein deacetylase sirtuin-3, mitochondrial (Homo sapiens) (UniProt Q9NTG7); experiment: Inhibition of SIRT3 (unknown origin) at 10 uM relative to control
# T3 sequence (whole entry): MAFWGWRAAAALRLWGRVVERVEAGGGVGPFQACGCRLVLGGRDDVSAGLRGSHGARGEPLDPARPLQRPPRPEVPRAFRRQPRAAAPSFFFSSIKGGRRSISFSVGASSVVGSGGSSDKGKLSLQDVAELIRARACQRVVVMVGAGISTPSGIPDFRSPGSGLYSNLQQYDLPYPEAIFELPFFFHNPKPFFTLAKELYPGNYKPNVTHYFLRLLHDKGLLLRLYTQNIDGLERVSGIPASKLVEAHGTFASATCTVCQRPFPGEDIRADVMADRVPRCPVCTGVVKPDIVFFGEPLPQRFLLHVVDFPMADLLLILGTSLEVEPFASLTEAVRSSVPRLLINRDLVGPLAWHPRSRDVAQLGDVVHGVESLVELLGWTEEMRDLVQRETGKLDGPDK
# [5] = molecular target: T1, NAD-dependent protein deacylase sirtuin-5, mitochondrial; experiment: Binding affinity to SIRT5 (unknown origin) assessed as desuccinylation activity by measuring inhibition constant
# [6] = molecular target: T1, NAD-dependent protein deacylase sirtuin-5, mitochondrial; experiment: Inhibition of SIRT5 desuccinylase activity (unknown origin) using succinyl-lysine as substrate
# [7] = molecular target: T1, NAD-dependent protein deacylase sirtuin-5, mitochondrial; experiment: Binding affinity to SIRT5 (unknown origin) assessed as deglutarylase activity by measuring inhibition constant
# [8] = system: HEK-293T; experiment: Cytotoxicity against human HEK293T cells at 100 uM relative to control; assay type: toxicity, cell-based
# [9] = system: OCI-AML2; experiment: cells; details: Homo sapiens
# Description: Cytotoxicity against human OCI-AML2 cells
# [10] = system: SKM-1; experiment: cells; details: Homo sapiens
# Description: Cytotoxicity against human SKM-1 cells
# [11] = system: MOLM-13; experiment: Cytotoxicity against human MOLM-13 cells; assay type: functional, cell-based
# [12] = molecular target: T2, NAD-dependent protein deacetylase sirtuin-1 (Homo sapiens); experiment: Inhibition of SIRT1 (unknown origin) at 1 uM relative to control
# [13] = molecular target: T1, NAD-dependent protein deacylase sirtuin-5, mitochondrial; experiment: Inhibition of SIRT5 activity (unknown origin)
# [14] = molecular target: NAD-dependent protein deacylase sirtuin-6 (Homo sapiens, UniProt Q8N6T7); experiment: Inhibition of His6-tagged SIRT6 (unknown origin) desuccinylase activity incubated for 12 mins by HPLC based assay
# Chain of NAD-dependent protein deacylase sirtuin-6 (Q8N6T7 whole entry): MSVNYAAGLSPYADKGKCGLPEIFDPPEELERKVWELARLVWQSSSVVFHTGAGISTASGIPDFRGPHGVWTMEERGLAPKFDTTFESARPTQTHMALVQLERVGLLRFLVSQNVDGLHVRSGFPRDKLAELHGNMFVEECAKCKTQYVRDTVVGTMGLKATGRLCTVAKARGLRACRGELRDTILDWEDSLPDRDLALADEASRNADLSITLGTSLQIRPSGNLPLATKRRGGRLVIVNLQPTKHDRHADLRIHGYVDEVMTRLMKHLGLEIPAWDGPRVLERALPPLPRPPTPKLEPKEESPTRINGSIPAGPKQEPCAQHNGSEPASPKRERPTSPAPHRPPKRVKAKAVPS
# [15] = molecular target: T4, NAD-dependent protein deacetylase sirtuin-3, mitochondrial (Homo sapiens, UniProt Q9NTG7); experiment: Inhibition of His6-tagged SIRT3 (unknown origin) desuccinylase activity incubated for 10 mins by HPLC based assay
# T4 sequence (Q9NTG7 whole entry): T3 sequence (whole entry)
# [16] = molecular target: T5, NAD-dependent protein deacetylase sirtuin-2 (Homo sapiens, UniProt Q8IXJ6); experiment: Inhibition of His6-tagged SIRT2 (unknown origin) desuccinylase activity incubated for 12 mins by HPLC based assay
# T5 sequence (Q8IXJ6 whole entry): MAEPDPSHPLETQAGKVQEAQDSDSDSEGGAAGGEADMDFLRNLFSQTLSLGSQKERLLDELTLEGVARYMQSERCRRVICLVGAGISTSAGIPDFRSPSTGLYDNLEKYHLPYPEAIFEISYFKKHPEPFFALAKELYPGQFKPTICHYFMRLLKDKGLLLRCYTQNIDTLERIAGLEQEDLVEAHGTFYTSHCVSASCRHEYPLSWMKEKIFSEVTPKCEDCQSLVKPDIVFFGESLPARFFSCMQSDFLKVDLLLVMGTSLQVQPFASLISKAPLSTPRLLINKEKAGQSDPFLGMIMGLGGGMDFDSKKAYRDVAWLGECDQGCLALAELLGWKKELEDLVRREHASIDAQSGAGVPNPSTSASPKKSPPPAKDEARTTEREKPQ
# [17] = molecular target: T6, NAD-dependent protein deacetylase sirtuin-1 (Homo sapiens, UniProt Q96EB6); experiment: Inhibition of His6-tagged SIRT1 (unknown origin) desuccinylase activity incubated for 10 mins by HPLC based assay
# T6 sequence (Q96EB6 whole entry): T2 sequence (whole entry)
# [18] = molecular target: T1, NAD-dependent protein deacylase sirtuin-5, mitochondrial; experiment: Inhibition of GST-tagged SIRT5 desuccinylase activity (unknown origin) incubated for 5 mins by HPLC based assay
# [19] = molecular target: T1, NAD-dependent protein deacylase sirtuin-5, mitochondrial; experiment: Binding affinity to SIRT5 (unknown origin) assessed as desuccinylation activity by measuring dissociation constant
# [20] = molecular target: T3, NAD-dependent protein deacetylase sirtuin-3, mitochondrial (Homo sapiens); experiment: Inhibition of SIRT3 (unknown origin) at 50 uM relative to control
# [21] = molecular target: T7, NAD-dependent protein deacetylase sirtuin-2 (Homo sapiens) (UniProt Q8IXJ6); experiment: Inhibition of SIRT2 (unknown origin) at 50 uM relative to control
# T7 sequence (whole entry): T5 sequence (Q8IXJ6 whole entry)
# [22] = molecular target: T2, NAD-dependent protein deacetylase sirtuin-1 (Homo sapiens); experiment: Inhibition of SIRT1 (unknown origin) at 50 uM relative to control
smiles,measurement,setting,value
Cc1ccc(NC(=O)/C(C#N)=C/c2ccc(-c3cccc(C(=O)O)c3)o2)cc1C,IC50,[1],101 µM
O=C(NC1CCC1)[C@H](Cc1c[nH]c2ccccc12)NC(=O)[C@H](CCCCNC(=S)NCCc1noc(=O)[nH]1)NS(=O)(=O)c1cccc(F)c1,inhibition,[2],37%
same,IC50,[3],≤ 0.05 µM
O=C(NC1CCC1)[C@H](Cc1c[nH]c2ccccc12)NC(=O)[C@H](CCCCNC(=S)NCCc1cc(O)on1)NS(=O)(=O)c1cccc(F)c1,inhibition,[4],40%
same,IC50,[3],0.29 µM
CCCCC(CC(=O)NCCCC[C@H](NC(=O)[C@H](CC(C)C)NC(=O)[C@@H](NC(=O)CNC(=O)c1ccccc1)C(C)C)C(=O)N[C@@H](CCC(=O)O)C(=O)N[C@@H](Cc1ccc(O)cc1)C(=O)NCC(=O)N[C@H](C(N)=O)C(C)C)C(=O)O (stereo partly drawn) (Bz-GVLK(X3)EYGV-NH2),Ki,[5],17.2 µM
Cc1ccc(NC(=O)/C(C#N)=C/c2ccc(-c3ccc(C(=O)O)cc3)o2)cc1C,IC50,[1],22.7 µM
N=C(N)NCCC[C@@H]1NC(=O)CCCCCCC(=O)NCCCC[C@@H](C(N)=O)NC(=O)[C@H](CCCCNC(=S)NCCC(=O)O)NC1=O,IC50,[6],2.2 µM
O=C(NC1CCC1)[C@H](Cc1c[nH]c2ccccc12)NC(=O)[C@H](CCCCNC(=S)NCCc1nnn[nH]1)NS(=O)(=O)c1cccc(F)c1,IC50,[3],≤ 0.05 µM
same,Ki,[7],0.0005 µM
CC(=O)SC(CC(=O)NCCCC[C@H](NC(=O)[C@H](CC(C)C)NC(=O)[C@@H](NC(=O)CNC(=O)c1ccccc1)C(C)C)C(=O)N[C@@H](CCC(=O)O)C(=O)N[C@@H](Cc1ccc(O)cc1)C(=O)NCC(=O)N[C@H](C(N)=O)C(C)C)C(=O)O (stereo partly drawn) (Bz-GVLK(X4)EYGV-NH2),Ki,[5],10.6 µM
CC(C)C(OC(=O)C(C)(C)C)n1nnnc1CCCNC(=S)NCCCC[C@H](NS(=O)(=O)c1cccc(F)c1)C(=O)N[C@@H](Cc1c[nH]c2ccccc12)C(=O)NC1CCC1 (stereo partly drawn),Activity,[8],35%
same,IC50,[9],20 µM
same,IC50,[10],9 µM
same,IC50,[11],24 µM
same,inhibition,[12],76%
O=C(NC1CCC1)[C@H](Cc1c[nH]c2ccccc12)NC(=O)[C@H](CCCCNC(=S)NCc1nnn[nH]1)NS(=O)(=O)c1cccc(F)c1,IC50,[13],5.1 µM
CC(=O)N[C@H]1CCCCNC(=O)CCCCCC(=O)NCCCC[C@@H](C(=O)N[C@H](C(N)=O)[C@@H](C)O)NC(=O)[C@H](CCCCNC(=S)NCCC(=O)O)NC(=O)[C@H](CCCNC(=N)N)NC1=O (Ac-KR[X1]KT-NH2; linker 1-4 via Heptanedioyl),IC50,[14],> 1000 µM
same,IC50,[15],> 1000 µM
same,IC50,[16],> 1000 µM
same,IC50,[17],> 1000 µM
same,IC50,[18],7.5 µM
CC(C)C[C@H](NC(=O)[C@@H](NC(=O)CNC(=O)c1ccccc1)C(C)C)C(=O)N[C@@H](CCCCNC(=O)CC(C(=O)O)c1ccccc1)C(=O)N[C@@H](CCC(=O)O)C(=O)N[C@@H](Cc1ccc(O)cc1)C(=O)NCC(=O)N[C@H](C(N)=O)C(C)C (stereo partly drawn) (Bz-GVLK(Succinyl(3ξ-Ph))EYGV-NH2),Ki,[5],100 µM
same,Kd,[19],8.2 µM
CC(C)C[C@H](NC(=O)[C@@H](NC(=O)CNC(=O)c1ccccc1)C(C)C)C(=O)N[C@@H](CCCCNC(=O)CC(C)(C(=O)O)c1ccccc1)C(=O)N[C@@H](CCC(=O)O)C(=O)N[C@@H](Cc1ccc(O)cc1)C(=O)NCC(=O)N[C@H](C(N)=O)C(C)C (stereo partly drawn) (Bz-GVLK(X2)EYGV-NH2),inhibition,[20],< 1%
same,Ki,[5],4.3 µM
same,inhibition,[21],4%
same,inhibition,[22],< 1%
